{"source": "patent US20040087561A1", "about": "“Treatment of sexual dysfunction” (priority 2000, published 2004)", "key": {"[1]": {"test_system": "ovariectomised female Sprague Dawley rats", "experiment": "Female rat sexual receptivity (lordosis quotient)", "format": "in vivo", "details": "for lordosis quotient (LQ) compared to LQ before administration: quinelorane 6.25 μg/kg s.c., 90 min", "description": "(§1) Ovariectomised adult female Sprague Dawley rats (180-200 g, from Charles River) were housed in groups of 6 in a reversed lighting system of 12 h light:dark (lights off 7.00-19.00 h). Two weeks after ovariectomy they were used for sexual activity tests. The experiments started at least 5 h into the dark period.\nCompound (1) was dissolved in 100% β-cyclodextrin and then diluted with saline to a final solution of 50% 2-hydroxypropyl-β-cyclodextrin. It was administered intraperitoneally (i.p.) at a dose of 10 mg/kg, in a dosing volume of 1 ml/kg. Quinelorane (6.25 μg/kg) was dissolved in water and administered s.c. as positive control. Forty eight hours before testing, ovariectomised female rats (as described above), were primed with 5 μg oestradiol benzoate dissolved in corn oil and injected subcutaneously. […] The females were placed with a series of vigorous male rats and subjected to 10 mounts.\nThe lordotic response of the animal was recorded and expressed as a percentage of the mounts (i.e. lordosis quotient, LQ), as previously described. Animals showing LQ<20 were considered non-receptive and were included in the study. Each rat was tested prior to administration of the compound and then tested similarly post-injection. The pre-treatment times were 1 h for Compound (1) and vehicle (50% β-cyclodextrin, i.p.) or 90 min for quinelorane.\nThe above compound was dissolved in PEG200 vehicle and administered orally. Quinelorane dihydrochloride (LY 163,502, 6.25 μg/kg) was dissolved in water and administered subcutaneously (s.c.), as a positive control. Both compounds were administered in a 1 ml/kg volume.\nForty eight hours before tests, the animals were primed with 5 μg oestradiol benzoate (Sigma Chemical. Co. Ltd., UK) dissolved in corn oil and injected subcutaneously. The females were placed with a series of vigorous male rats and subjected to 10 mounts. The lordotic response of the animal was recorded and expressed as a percentage of the mounts (i.e. lordosis quotient, LQ). […] Animals showing higher LQ were not included in the study. Each rat was tested prior to administration of the compound and then tested similarly at 1 h and 90 min post-injection of the above compound or quinelorane respectively."}, "[2]": {"biological_target": "T1, human NMB receptor (BB1) (Homo sapiens, UniProt P28336)", "T1 construct": "expressed in transfected cells; host or cells: CHO-K1", "T1 sequence (P28336 whole entry)": "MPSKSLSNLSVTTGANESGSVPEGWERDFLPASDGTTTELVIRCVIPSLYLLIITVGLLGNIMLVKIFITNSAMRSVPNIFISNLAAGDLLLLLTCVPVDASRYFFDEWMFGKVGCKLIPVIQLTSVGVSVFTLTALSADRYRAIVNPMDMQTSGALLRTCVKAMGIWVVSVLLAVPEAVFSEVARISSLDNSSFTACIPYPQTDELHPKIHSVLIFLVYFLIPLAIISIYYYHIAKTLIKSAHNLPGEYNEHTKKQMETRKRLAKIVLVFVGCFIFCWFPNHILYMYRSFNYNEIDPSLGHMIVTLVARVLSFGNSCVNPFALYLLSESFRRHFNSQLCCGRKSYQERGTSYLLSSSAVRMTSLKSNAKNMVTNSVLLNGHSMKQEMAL", "experiment": "BB1 binding assay ([125I][Tyr4]bombesin, CHO-K1 cell membranes)", "description": "In the following experiments, measurement of BB1 and BB2 binding was as follows. CHO-K1 cells stably expressing cloned human NMB (for (BB1 assay) and GRP receptors (for BB2 assay) were routinely grown in Ham's F12 culture medium supplemented with 10% foetal calf serum and 2 mM glutamine. For binding experiments, cells were harvested by trypsinization, and stored frozen at −70° C. in Ham's F12 culture medium containing 5% DMSO until required. On the day of use, cells were thawed rapidly, diluted with an excess of culture medium, and centrifuged for 5 minutes at 2000 g. Cells were resuspended in 50 mM Tris-HCl assay buffer (pH 7.4 at 21° C., containing 0.02% BSA, 40 μg/mL bacitracin, 2 μg/mL chymostatin, 4 μg/mL leupeptin, and 2 μM phosphoramidon), counted, and polytronned (setting 5, 10 sec) before centrifuging for 10 minutes at 28,000 g. The final pellet was resuspended in assay buffer to a final cell concentration of 1.5×10^5/mL. For binding assays, 200 μL aliquots of membranes were incubated with [^125I][Tyr^4]bombesin (<0.1 nM) in the presence and absence of test compounds (final assay volume 250 μL) for 60 minutes and 90 minutes for NMB and GRP receptors, respectively. Nonspecific binding was defined by 1 μM bombesin. Assays were terminated by rapid filtration under vacuum onto Whatman GF/C filters presoaked in 0.2% PEI for >2 hours, and washed 50 mM Tris-HC (pH 6.9 at 21° C.; 6×1 mL). Radioactivity bound was determined using a gamma counter.\nAll competition data was analysed using nonlinear regression utilizing iterative curve-plotting procedures in Prism® (GraphPad Software Inc., San Diego, USA). IC50 values were corrected to Ki values using the Cheng-Prusoff equation (Cheng Y., PrusoffW. H., Biochem. Pharmacol. 22: 3099-3108, 1973)."}, "[3]": {"test_system": "Sprague Dawley male rats", "experiment": "Sexual behaviour of sexually dysfunctional (fluoxetine-treated) male rats", "format": "in vivo, rat", "details": "fluoxetine 20 mg/kg i.p. 3 days (vs vehicle+vehicle); day 4 Compound (1) 15 mg/kg or yohimbine 2 mg/kg i.p. 1 h before test (vs fluoxetine+vehicle)", "description": "Sprague Dawley male rats (Charles River, UK) were kept, 4 rats per cage, in a reversed lighting regime (12:12 hours, lights off at 5.00 h), with free access to food and water. The rats were pre-selected by being presented with a receptive female at […], i.e. every third day (haying 2 clear days between presentations) until completing 6-7 trials of baseline determination. The animals showing consistently vigorous behaviour (ejaculatory latencies <300 s) were chosen for further experiments. Animals were treated for 3 consecutive days with either vehicle (water) or fluoxetine (20 mg/kg, i.p., in a 2 ml/kg dosing volume). On the fourth day, the animals treated with water received vehicle (veh+veh) and the animals treated with fluoxetine received one of the three following treatments: Compound (1) (15 mg/kg, dissolved in 50% 2-hydroxypropyl-β-cyclodextrin in saline), vehicle (cyclodextrine), or yohimbine (2 mg/kg dissolved in water). All treatments were administered i.p. in a 1 ml/kg volume, 1 h before tests.\nFor all the sexual behaviour tests, the males were placed in an observation arena (50-60 cm diameter), starting 5 hours into the dark cycle and observed under red illumination. Three to 4 minutes after placing the male in the arena, a receptive female (ovariectomised, bearing a 7 mm Silastic implant of oestradiol benzoate) was introduced to the arena and the following parameters noted: Mount Latency: time (in seconds) taken between introduction of female and first mount. A maximum time of 15 minutes (900 seconds) was allowed, and the test terminated if no mounts were recorded within that time (FIG. 16), Ejaculation Latency: time (in seconds) taken from first intromission to ejaculation. A maximum time of 30 minutes (1800 seconds) was given, and the test terminated if ejaculation was not achieved in that time (FIG. 17), Percentage of males achieving ejaculation within 30 minutes was calculated (FIG. 18).\nA one-way ANOVA followed by Dunnett's t test was used to compare the fluoxetine+vehicle group and other groups for mount and ejaculatory latencies. Percentage of animals ejaculating was analysed using a Chi-square test followed by Fisher's test. (*: P<0.05, **: P<0.01, ***: P<0.001; n=15-19)."}, "[4]": {"test_system": "ovariectomised female Sprague Dawley rats", "experiment": "Female rat sexual proceptivity (time investigating male vs female stimulus)", "format": "in vivo", "details": "for MED, percentage of time spent investigating the male stimulus (proceptivity) / percentage of time spent investigating the male stimulus (proceptivity): 1 h before test", "description": "as §1\nTests were carried out in a circular arena of 90 cm diameter, surrounded by a 30 cm high wall. Two small cages with wire-mesh front (15×15 cm) are fixed into the wall such that the front of the cage is <> with the wall and the 2 cages are opposite each other. They contained two stimuli animals: an intact sexually experienced male and a receptive female (ovariectomised, primed with 5 μg oestradiol benzoate dissolved in corn oil and injected subcutaneously 48 hours before the test and with 0.5 mg of progesterone four hours before the test). Sexually naive test and control animals were used. Forty eight hours before the tests, both the test and control animals were primed with 5 μg oestradiol benzoate. For animals used as positive controls, progesterone (0.5 mg/0.1 ml) was dissolved in corn oil and administered subcutaneously (s.c.), 4 h before the test. Test and control animals were introduced one at a time for 10 minute periods into the arena. During the 10 min test, the time that the test or positive control animal spent investigating each stimulus animal was noted. The arena was thoroughly cleaned between animals. The position of the male/female stimuli boxes was randomised between animals, in order to avoid place preference. The difference in the percentage of time spent investigating the male minus the female stimuli was calculated, out of the total time spent investigating stimuli animals.\nCompound (1) was dissolved in 100% β-cyclodextrin and then diluted with saline to a final solution of 50% 2-hydroxypropyl-β-cyclodextrin. It was administered intraperitoneally (i.p.) at doses of 3 and 10 mg/kg, in a dosing volume of 1 ml/kg, 1 h before tests. Progesterone (0.5 mg/0.1 ml) was dissolved in corn oil and administered subcutaneously (s.c.), 4 h before test, as a positive control.\nOvariectomised adult female Sprague Dawley rats (180-200 g) were housed in groups of 5 in a reversed lighting system of 12 h light:dark (lights off 5.00-17.00 h). They were used for the experiments at least two weeks after ovariectomy. Forty eight hours before tests, the animals were primed with oestradiol benzoate (5 μg/0.1 ml in corn oil, s.c.). On day 1, progesterone (0.5 mg/0.1 ml, in corn oil, s.c.) was administered to one of the groups 4 h before tests, as a positive control. Compound (1) (15 mg/kg, i.p.) was administered in 50% 2-hydroxypropyl-β-cyclodextrin, 1 h before tests. The test lasted 10 minutes and was carried out as described before. The difference in the percentage of time spent investigating the male minus the female stimuli was calculated, out of the total time spent investigating stimuli animals. Animals were submitted to a test on day 1 and on day 15. From day 2 to 14 the Compound (1) group received a daily injection of the compound (15 mg/kg, i.p.), while both the vehicle and the progesterone groups received an injection of vehicle. On day 15 the test took place again, as described for day 1.\nOvariectomised female rats (Sprague Dawley, obtained from Charles River, UK) were stereotaxically implanted (coordinates 0.89 mm behind Bregma, 1.3 mm lateral and 2.5 mm vertical) with stainless steel cannulae (6 mm long, O.D. 0.75 mm), held in place with dental cement. Animals were housed in groups of three and returned to a reversed lighting system of 12 h light:dark (lights off 5.00-17.00 h). Correct placement of the cannulae was assessed post-mortem. Rats were used for tests two weeks after ovariectomy (one week after cannulation). The experiments started at least 5 h into the dark period. […]"}, "[5]": {"details": "Example 31, Compound (2) 10-100 mg/kg oral in PEG200, 1 h"}, "[6]": {"details": "oral, 30-100 mg/kg in PEG 200 vehicle"}, "[7]": {"details": "p.o., 3-30 mg/kg in 0.5% methyl cellulose"}}, "note": "Where two headings read alike, the source gives them in different places.", "data": [{"compound": "CCCN1CCC[C@@H]2Cc3nc(N)ncc3C[C@H]21", "note": "[quinelorane, reference compound]", "values": [{"measurement": "lordosis quotient (LQ) compared to LQ before administration", "setting": "[1]; Example 2, Compound (1) 10 mg/kg i.p., 1 h", "result": "significantly (P<0.01) increased the LQ"}, {"measurement": "lordosis quotient (LQ) compared to LQ before administration", "setting": "[1]; [5]", "result": "significantly (P<0.01) increased the LQ"}]}, {"compound": "C-Dimethylamino-N—{(S)-2-(1H-indol-3-yl)-1-methyl-1-[(1-pyridin-2-yl-cyclohexyl-methyl)-carbamoyl]-ethyl}-benzamide [Example 48]", "values": [{"measurement": "IC50", "setting": "[2]; Table 3", "result": 716, "unit": "nM"}]}, {"compound": "COC(=O)[C@@H]1[C@H]2C[C@H]3c4[nH]c5ccccc5c4CCN3C[C@@H]2CC[C@@H]1O", "note": "[Yohimbine, yohimbine]", "values": [{"measurement": "Ejaculation latency", "setting": "[3]", "result": "did not reach significance"}, {"measurement": "Mount latency", "setting": "[3]", "result": "did not reach significance"}, {"measurement": "percentage of animals ejaculating (within 30 minutes)", "setting": "[3]", "result": "did not reach significance"}]}, {"compound": "C[C@@](Cc1c[nH]c2ccccc12)(NS(=O)(=O)c1cc(Cl)sc1Cl)C(=O)NCC1(c2ccccn2)CCCCC1", "note": "[Example 157]", "values": [{"measurement": "IC50", "setting": "[2]", "result": 214, "unit": "nM"}]}, {"compound": "Cc1ccccc1CC(=O)N[C@@](C)(Cc1c[nH]c2ccccc12)C(=O)NCC1(c2ccccn2)CCCCC1", "note": "[Example 51, (S)-3-(1H-Indol-3-yl)-2-methyl-N-(1-pyridin-2-yl-cyclohexylmethyl)-2-(2-o-tolyl-ethanoylamino)-propionamide]", "values": [{"measurement": "IC50", "setting": "[2]; Table 3", "result": 944, "unit": "nM"}]}, {"compound": "COc1ccc(C2(CNC(=O)[C@](C)(Cc3c[nH]c4ccccc34)Nc3nc(-c4ccc([N+](=O)[O-])cc4)co3)CCCCC2)nc1", "note": "[Example 9, (S)-3-(1H-Indol-3-yl)-N-[1-(5-methoxy-pridin-2-yl)-cyclohexylmethyl]-2-methyl-2-[4-(4-nitro-phenyl)-oxazol-2-ylamino]-propionamide]", "values": [{"measurement": "lordosis quotient (LQ) compared to LQ before administration", "setting": "[1]; [5]", "result": "dose-dependently (10-100 mg/kg) increased the LQ"}, {"measurement": "MED, increase of lordosis quotient (LQ)", "setting": "[1]; Example 31, single oral administration 10-100 mg/kg in PEG200, 1 h after administration", "result": 100, "unit": "mg/kg"}, {"measurement": "increase in potency compared to the oral results in the PEG200 vehicle", "setting": "[4]; MED in 0.5% methyl cellulose vs MED in PEG200, p.o.", "result": 10, "unit": "fold"}, {"measurement": "MED, percentage of time spent investigating the male stimulus (proceptivity)", "setting": "[4]; [6]", "result": 100, "unit": "mg/kg"}, {"measurement": "percentage of time spent investigating the male stimulus (proceptivity)", "setting": "[4]; [6]", "result": "increased the percentage of time spent investigating the male stimulus"}, {"measurement": "MED, percentage of time spent investigating the male stimulus (proceptivity)", "setting": "[4]; [7]", "result": 10, "unit": "mg/kg"}, {"measurement": "percentage of time spent investigating the male stimulus (proceptivity)", "setting": "[4]; [7]", "result": "increased the percentage of time spent investigating the male stimulus"}]}]}
